Results from US8604192B2, “Cyclohexenyl nucleic acids analogs” (Isis Pharmaceuticals, Inc., priority 2008, dated 2013).

Tests used:
[1] = test system: complementary RNA (20-mer RNA); assay: Tm of gapped oligomeric compound with complementary RNA; format: binding; details: 100 mM phosphate buffer, 0.1 mM EDTA, pH 7, 260 nm, 4 μM oligomeric compound and 4 μM complementary RNA
Experimental: (§1) Six week old Balb/c mice (Jackson Laboratory, Bar Harbor, Me.) were injected with a single dose of ASOs 464846 and 464847 targeted to PTEN at a dose of 3.2, 10, 32 and 100 mg/kg. The mice were sacrificed 48 hours following the last administration. Liver tissues were homogenized and mRNA levels were quantitated using real-time PCR using procedures illustrated herein for comparison to untreated control levels (% UTC). Plasma chemistry analysis was also completed. Tms were determined in 100 mM phosphate buffer, 0.1 mM EDTA, pH 7, at 260 nm using 4 μM of the gapped oligomeric compounds listed below and 4 μM of the complementary RNA.

PTEN = assay: 3-10-3 gapped oligomeric compounds targeted to PTEN: in vivo study, liver mRNA levels by real-time PCR; parameters: species or system Balb/c mice; details: estimated ED50 for liver PTEN mRNA reduction (% UTC); single dose of 3.2, 10, 32 and 100 mg/kg; sacrificed 48 hours after administration; calculated using Graphpad Prism
Text: Quantitation of target mRNA levels is accomplished by real-time quantitative PCR using the ABI PRISM™ 7600, 7700, or 7900 Sequence Detection System (PE-Applied Biosystems, Foster City, Calif.) according to manufacturer's instructions. This is a closed-tube, non-gel-based, fluorescence detection system which allows high-throughput quantitation of polymerase chain reaction (PCR) products in real-time. As opposed to standard PCR in which amplification products are quantitated after the PCR is completed, products in real-time quantitative PCR are quantitated as they accumulate. […] With each cycle, additional reporter dye molecules are cleaved from their respective probes, and the fluorescence intensity is monitored at regular intervals by laser optics built into the ABI PRISM™ Sequence Detection System. In each assay, a series of parallel reactions containing serial dilutions of mRNA from untreated control samples generates a standard curve that is used to quantitate the percent inhibition after antisense oligonucleotide treatment of test samples.
Prior to quantitative PCR analysis, primer-probe sets specific to the target gene being measured are evaluated for their ability to be “multiplexed” with a GAPDH amplification reaction. […]

[2] = Liver transaminase levels (ALT) in serum, plasma chemistry analysis; format: in vivo, Balb/c mice; details: approximate serum level, mice, 48 hours; for ALT @ 3.2 mg/kg: single dose 3.2 mg/kg; for ALT @ 10 mg/kg: single dose 10 mg/kg; for ALT @ 32 mg/kg: single dose 32 mg/kg; for ALT @ 100 mg/kg: single dose 100 mg/kg
Experimental: as §1
Liver transaminase levels, alanine aminotranferease (ALT) and aspartate aminotransferase (AST), in serum were also measured relative to saline injected mice.

Substance	Tm (° C.) vs. 20-mer RNA [1]	ED50 (PTEN)	ALT @ 3.2 mg/kg [2]	ALT @ 10 mg/kg [2]	ALT @ 32 mg/kg [2]	ALT @ 100 mg/kg [2]
Te^mCeTeTAG^mCA^mCTGGC^mCeTeTe (DNA TCTTAGCACTGGCCTT; all phosphorothioate, sugars by position and methylation of C not given here; 3-10-3 gapmer, wing nucleosides defined elsewhere, some cytosines 5-methylated) [05/464846]	62.35 °C	91 mg/kg	38	25	22	22
Tf^mCfTfTAG^mCA^mCTGGC^mCfTfTf (DNA TCTTAGCACTGGCCTT; all phosphorothioate, sugars by position and methylation of C not given here; wing nucleosides modified (marked e), some C 5-methyl) [05/464847]	64.37 °C	22 mg/kg	24	23	24	284
